Measurements published in patent US20250289813A1, “CDK INHIBITORS, PHARMACEUTICAL COMPOSITIONS, AND THERAPEUTIC APPLICATIONS” (ONQUALITY PHARMACEUTICALS CHINA LTD., priority 2022, published 2025).

Columns and labels:
[1] = system: MCF-7 human breast cancer cells; test: CELLTITER-GLO luminescent cell viability assay; format: cell-based; conditions: MCF7, 192 h, MCF-7 cells, 8 days, read-out: EC50 (Effect on Cell Viability)
Protocol: A CELLTITER-GLO luminescent cell viability assay was carried out using MCF-7 human breast cancer cells under the normal growth condition. The MCF-7 human breast cancer cells were grown at 37° C. in a 5% CO2 humidified incubator in EMEM, supplemented 10% FBS, 0.01 mg/mL bovine insulin. The cells were seeded at a 3,000 cells/well in a 96-well tissue culture plate. The cells were allowed to adhere overnight in the incubator. A compound (5 μL) in a medium at a predetermined concentration. After the cells was incubated at 37° C. for 8 days, a CELLTITER-GLO detection solution (100 μL) was added. The cells were mixed on an orbital shaker for 5 min and then incubated for additional 10 min. The plate was read with an ENVISION reader. The results are summarized in Table 2, where the symbol “+++” represents a value no greater than 1 μM, the symbol “++” represents a value greater than 1 μM but no greater than 10 μM, and the symbol “+” represents a value greater than 10 μM.

[2] = molecular target: CDK4/cyclin D1 (Homo sapiens (Human), UniProt P11802); test: CDK4 Caliper Mobility Shift assay; format: biochemical
CDK4/cyclin D1, sequence (P11802 whole entry): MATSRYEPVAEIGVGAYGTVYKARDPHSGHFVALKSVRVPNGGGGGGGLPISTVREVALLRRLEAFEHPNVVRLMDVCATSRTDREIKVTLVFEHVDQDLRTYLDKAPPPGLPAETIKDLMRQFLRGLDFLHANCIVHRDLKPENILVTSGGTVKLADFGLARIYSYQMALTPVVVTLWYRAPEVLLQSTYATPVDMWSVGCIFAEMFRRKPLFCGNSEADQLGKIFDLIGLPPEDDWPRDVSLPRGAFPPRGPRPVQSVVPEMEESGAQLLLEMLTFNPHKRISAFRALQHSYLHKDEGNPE
CDK4/cyclin D1, sequence (P24385 whole entry partner): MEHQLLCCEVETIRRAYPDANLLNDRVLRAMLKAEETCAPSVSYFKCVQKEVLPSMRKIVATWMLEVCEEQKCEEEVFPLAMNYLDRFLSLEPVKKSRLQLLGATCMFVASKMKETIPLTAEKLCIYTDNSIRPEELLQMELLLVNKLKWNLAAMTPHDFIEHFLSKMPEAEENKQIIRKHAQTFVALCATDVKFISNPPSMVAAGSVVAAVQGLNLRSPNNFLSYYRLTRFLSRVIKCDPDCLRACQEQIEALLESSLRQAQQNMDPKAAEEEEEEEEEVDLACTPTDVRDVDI
In short: (§1)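 Caliper mobility-shift kinase assay with FAM-labeled peptide substrate. CDK4/cyclin D1 (15 nM) ran in 20 mM HEPES pH 7.5, 0.01% Triton X-100 at […] ATP; CDK6/cyclin D1 (7.5 nM) in 50 mM HEPES pH 7.5, 0.0015% BRIJ-35 at […] ATP. Compound was pre-incubated 10 min, reactions ran at 28 °C, and IC50 came from percent conversion inhibition.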

[3] = system: COLO205 human colon cancer cells; test: CASPASE-GLO 3/7 apoptosis assay (protection against chemotherapy drug induced cytotoxicity); format: cell-based
Protocol: The CASPASE-GLO 3/7 apoptosis assay was used to evaluate the protective effect of a compound on the cytotoxicity induced by a chemotherapy drug. The apoptosis assay was carried out using COLO205 human colon cancer cells. The cells were grown at 37° C. in a 5% CO2 humidified incubator in PRIM1640 supplemented with 10% FBS and 0.01 mg/mL bovine insulin. The cells were seeded at 4,000 cells/well in a 96-well plate. After incubated overnight, the cells were pretreated with a compound at predetermined concentrations or a vehicle for 16 h, followed by addition of a chemotherapy drug. After incubated for another 48 h, the CASPASE-GLO 3/7 reagent (100 μL/well) was added. The cells were mixed on an orbital shaker for 10 min and incubated at room temperature for 2 h. The 96-well plate was read with an ENVISION reader.

[4] = molecular target: CDK6/cyclin D1 (Homo sapiens (Human), UniProt Q00534); test: CDK6 Caliper Mobility Shift assay; format: biochemical
CDK6/cyclin D1, sequence (Q00534 whole entry): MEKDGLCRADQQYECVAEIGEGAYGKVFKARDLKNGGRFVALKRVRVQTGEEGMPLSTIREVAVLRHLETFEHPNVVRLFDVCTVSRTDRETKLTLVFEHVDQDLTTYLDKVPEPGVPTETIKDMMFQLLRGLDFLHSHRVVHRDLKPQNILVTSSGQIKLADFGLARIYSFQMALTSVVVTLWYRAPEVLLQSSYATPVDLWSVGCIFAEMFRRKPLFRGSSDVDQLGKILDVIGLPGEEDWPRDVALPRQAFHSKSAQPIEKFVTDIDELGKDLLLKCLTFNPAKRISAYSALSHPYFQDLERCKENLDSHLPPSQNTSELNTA
CDK6/cyclin D1, sequence (P24385 whole entry partner): as the sequence (P24385 whole entry partner) above
In short: as §1

[5] = system: BALB/c mice; test: 5-FU-induced diarrhea mouse model; format: in vivo; conditions: 8 h before and 4 h after 5-FU (175 mg/kg), day 7
Protocol: A compound was evaluated in a 5-FU-induced diarrhea mouse model for its protective effect on the cytotoxicity induced by the chemotherapy drug 5-FU. On day 0, BALB/c mice (20-25 g, 7-8 weeks of age) were randomly divided into 3 groups (vehicle, 5-FU, and compound treatment) with 10 mice in each group. In the vehicle group, the mice were administered orally with the same medium in the same amount as used in the treatment group for the compound and then injected with the same medium in the same amount as used in the 5-FU group. In the 5-FU group, the mice were administered orally with the same medium in the same amount as used in the treatment group for the compound and then injected with 5-FU (175 mg/kg). In the treatment group, the mice were administrated orally with the compound and then injected with 5-FU (175 mg/kg). The compound was formulated with a 0.5% CMC solution.
On day 7, the diarrhea grade of each mouse was determined according to the method described in Kurita et al., Cancer Chemother. Pharmacol. 2000, 46, 211-20, the disclosure of which is incorporated herein by reference in its entirety. Diarrhea remission rates were calculated using the formula of Diarrhea remission rate (%)=(diarrhea grade in 5-FU group—diarrhea grade in treatment group)/diarrhea grade in 5-FU group×100%.

Row | SMILES | EC50 [1] | IC50 [2] | IC50 [4] | other results
1 | CC(=O)c1c(C)c2cnc(Nc3ccc(N4CCN(S(=O)(=O)NC(=O)CN)CC4)cn3)nc2n(C2CCCC2)c1=O [Compound A29, N-((4-(6-((6-Acetyl-8-cyclopentyl-5-methyl-7-oxo-7,8-dihydropyrido[2,3-d]-pyrimidin-2-yl)amino)pyridin-3-yl)piperazin-1-yl)sulfonyl)-2-aminoacetamide] | ≤ 1000 nM | ≤ 200 nM | ≤ 200 nM | RPR (relative protection rate) ([3]; compound 1 μM, 5-Fu (10 μM)): 89%; RPR (relative protection rate) ([3]; compound 10 μM, 5-Fu (10 μM)): 78%
2 | CC(=O)c1c(C)c2cnc(Nc3ccc(N4CCN(S(=O)(=O)NC(=O)[C@H](C)N)CC4)cn3)nc2n(C2CCCC2)c1=O [Compound A6, (S)—N-((4-(6-((6-acetyl-8-cyclopentyl-5-methyl-7-oxo-7,8-dihydropyrido[2,3-d]-pyrimidin-2-yl)amino)pyridin-3-yl)piperazin-1-yl)sulfonyl)-2-aminopropanamide] | ≤ 1000 nM | ≤ 200 nM | ≤ 200 nM | RPR (relative protection rate) ([3]; compound 0.01 μM, Irinotecan (20 μM)): 20%; RPR (relative protection rate) ([3]; compound 0.2 μM, Irinotecan (20 μM)): 36%; RPR (relative protection rate) ([3]; compound 2 μM, Irinotecan (20 μM)): 89%; RPR (relative protection rate) ([3]; compound 20 μM, Irinotecan (20 μM)): 73%; RPR (relative protection rate) ([3]; compound 50 μM, Irinotecan (20 μM)): 57%; Remission Rate (diarrhea remission rate) ([5]; 5 mg/kg oral): 20%; Remission Rate (diarrhea remission rate) ([5]; 50 mg/kg oral): 66%; Remission Rate (diarrhea remission rate) ([5]; 100 mg/kg oral): 33%
3 | CC(=O)OCCOC(=O)NS(=O)(=O)N1CCN(c2ccc(Nc3ncc4c(C)c(C(C)=O)c(=O)n(C5CCCC5)c4n3)nc2)CC1 [Compound A9, 2-((((4-(6-((6-Acetyl-8-cyclopentyl-5-methyl-7-oxo-7,8-dihydropyrido[2,3-d]-pyrimidin-2-yl)amino)pyridin-3-yl)piperazin-1-yl)sulfonyl)carbamoyl)oxy)ethyl acetate] | 1000 to 10000 nM | ≤ 200 nM | ≤ 200 nM | 
4 | COCCOC(=O)NS(=O)(=O)N1CCN(c2ccc(Nc3ncc4c(C)c(C(C)=O)c(=O)n(C5CCCC5)c4n3)nc2)CC1 [Compound A8, 2-Methoxyethyl ((4-(6-((6-acetyl-8-cyclopentyl-5-methyl-7-oxo-7,8-dihydropyrido[2,3-d]pyrimidin-2-yl)amino)pyridin-3-yl)piperazin-1-yl)sulfonyl)carbamate] | > 10000 nM | 200 to 500 nM | ≤ 200 nM | 
5 | CC(=O)c1c(C)c2cnc(Nc3ccc(N4CCN(S(=O)(=O)N5CC(CO)OC5=O)CC4)cn3)nc2n(C2CCCC2)c1=O (stereo not drawn) [Compound A12, 3-((4-(6-((6-Acetyl-8-cyclopentyl-5-methyl-7-oxo-7,8-dihydropyrido[2,3-d]-pyrimidin-2-yl)amino)pyridin-3-yl)piperazin-1-yl)sulfonyl)-5-(hydroxymethyl)oxazolidin-2-one] | 1000 to 10000 nM | ≤ 200 nM | ≤ 200 nM | Remission Rate (diarrhea remission rate) ([5]; 10 mg/kg oral): 50%; Remission Rate (diarrhea remission rate) ([5]; 25 mg/kg oral): 90%
6 | CC(=O)c1c(C)c2cnc(Nc3ccc(N4CCN(S(=O)(=O)NC(=O)OC(C)C)CC4)cn3)nc2n(C2CCCC2)c1=O [Compound A27, Isopropyl ((4-(6-((6-acetyl-8-cyclopentyl-5-methyl-7-oxo-7,8-dihydropyrido[2,3-d]pyrimidin-2-yl)amino)pyridin-3-yl)piperazin-1-yl)sulfonyl)carbamate] | 1000 to 10000 nM | ≤ 200 nM | 200 to 500 nM | 

The next lines start with results.

Row | EC50 [1] | IC50 [2] | IC50 [4] | SMILES | other results
7 | 1000 to 10000 nM | ≤ 200 nM | 200 to 500 nM | CC(=O)c1c(C)c2cnc(Nc3ccc(N4CCN(S(=O)(=O)NC(=O)C5CCCO5)CC4)cn3)nc2n(C2CCCC2)c1=O (stereo not drawn) [Compound A39, N-((4-(6-((6-Acetyl-8-cyclopentyl-5-methyl-7-oxo-7,8-dihydropyrido[2,3-d]-pyrimidin-2-yl)amino)pyridin-3-yl)piperazin-1-yl)sulfonyl)tetrahydrofuran-2-carboxamide] | RPR (relative protection rate) ([3]; compound 1 μM, Irinotecan (20 μM)): 79%; RPR (relative protection rate) ([3]; compound 10 μM, Irinotecan (20 μM)): 86%
8 | 1000 to 10000 nM | ≤ 200 nM | ≤ 200 nM | CC(=O)c1c(C)c2cnc(Nc3ccc(N4CCN(S(=O)(=O)NCC(=O)O)CC4)cn3)nc2n(C2CCCC2)c1=O [Compound A44, ((4-(6-((6-Acetyl-8-cyclopentyl-5-methyl-7-oxo-7,8-dihydropyrido[2,3-d]-pyrimidin-2-yl)amino)pyridin-3-yl)piperazin-1-yl)sulfonyl)glycine] | RPR (relative protection rate) ([3]; compound 5 μM, 5-Fu (10 μM)): 90%; RPR (relative protection rate) ([3]; compound 20 μM, 5-Fu (10 μM)): 65%
9 | 1000 to 10000 nM | ≤ 200 nM | ≤ 200 nM | CC(=O)c1c(C)c2cnc(Nc3ccc(N4CCN(S(=O)(=O)NC(=O)OCCNC(=O)[C@H](N)C(C)C)C[C@@H]4C)cn3)nc2n(C2CCCC2)c1=O [Compound A55, 2-((R)-2-Amino-3-methylbutanamido)ethyl (((S)-4-(6-((6-acetyl-8-cyclopentyl-5-methyl-7-oxo-7,8-dihydropyrido[2,3-d]pyrimidin-2-yl)amino)pyridin-3-yl)-3-methylpiperazin-1-yl)sulfonyl)carbamate] | RPR (relative protection rate) ([3]; compound 0.1 μM, 5-Fu (10 μM)): 38%; RPR (relative protection rate) ([3]; compound 10 μM, 5-Fu (10 μM)): 88%
10 | 1000 to 10000 nM | ≤ 200 nM | 200 to 500 nM | CC(=O)c1c(C)c2cnc(Nc3ccc(N4CCN(S(=O)(=O)NC(=O)C(C)C)CC4)cn3)nc2n(C2CCCC2)c1=O [Compound A36, N-((4-(6-((6-Acetyl-8-cyclopentyl-5-methyl-7-oxo-7,8-dihydropyrido[2,3-d]-pyrimidin-2-yl)amino)pyridin-3-yl)piperazin-1-yl)sulfonyl)isobutyramide] | 
11 | 1000 to 10000 nM | ≤ 200 nM | ≤ 200 nM | COCCNS(=O)(=O)N1CCN(c2ccc(Nc3ncc4c(C)c(C(C)=O)c(=O)n(C5CCCC5)c4n3)nc2)CC1 [Compound A43, 4-(6-((6-Acetyl-8-cyclopentyl-5-methyl-7-oxo-7,8-dihydropyrido[2,3-d]-pyrimidin-2-yl)amino)pyridin-3-yl)-N-(2-methoxyethyl)piperazine-1-sulfonamide] | 
12 | 1000 to 10000 nM | ≤ 200 nM | ≤ 200 nM | CC(=O)c1c(C)c2cnc(Nc3ccc(N4CCN(S(=O)(=O)NC(C)C)CC4)cn3)nc2n(C2CCCC2)c1=O [Compound A48, 4-(6-((6-Acetyl-8-cyclopentyl-5-methyl-7-oxo-7,8-dihydropyrido[2,3-d]-pyrimidin-2-yl)amino)pyridin-3-yl)-N-isopropylpiperazine-1-sulfonamide] | 
